Tests used:
[1] = system: NIH3T3 MYC+ and NIH3T3 MYC-null; assay: influence of c-myc expression on cytotoxicity, Cell Count (%); conditions: for effect of c-myc (MYC) expression on cellular sensitivity: FIG. 4A-4D, cisplatin data not shown
MCF7 (ER positive) = assay: cytotoxic IC50, 2 hour exposure; conditions: Homo sapiens, MCF7, 2 h, read-out: cytotoxic IC50 values, MCF7 (ER positive)
MV522 Target Cell Line = assay: 48 hour exposure, growth or viability by Trypan Blue Exclusion assay; format: cell-based; conditions: MV522, 48 h, read-out: Mean IC50 value, MV522 Target Cell Line, 48 hr exposure
Experimental: (§1) In various embodiments of the invention, the MV522 cell line represents a “target” cell line. […] The two hour toxicity data represents the concentration of a given analog for which a two hour exposure will inhibit 50% of the DNA synthesis activity in a given cell line. The 48 hour exposure data represents the concentration at which a given analog with a 48 hour exposure will inhibit the growth or viability in a given cell line as defined by the standard Trypan Blue Exclusion assay.

[2] = system: NCI DTP 60 cell line panel; assay: NCI DTP 60 Cell Line screen: Growth Inhibition (GI50), Total Growth Inhibition (TGI), Lethal Concentration (LC50/LD); format: cell-based, human; conditions: mean over NCI DTP 60 cell line panel; for Mean LD50 cytotoxic: lethal concentration dose (cytotoxic effect); for GI50: growth inhibition; for Mean TGI cytostatic: total growth inhibition (cytostatic effect)
Experimental: In particular, an algorithm based on the obtained in vitro cell culture values (i.e. growth inhibition values (GI50), or the total growth inhibition (TGI), or the lethal concentration (LC50)) of cell lines (e.g., NCI60 cells) subjected to treatment with an illudofulvene, and gene expression is determined in these same cell lines (e.g., by microarray analysis, reverse transcriptase polymerase chain reaction (RT-PCR), quantitative real-time PCR (qPCR), or next generation sequencing). After normalization, genes with, e.g., a Pearson correlation coefficient greater than about 0.5 or below about −0.5 to one of the obtained in vitro cell culture values, can be classified as biomarkers of sensitivity or resistance, respectively. A probability or significance value can also be calculated for the correlation between the obtained in vitro cell culture values (i.e. growth inhibition values (GI50), or the total growth inhibition (TGI), or the lethal concentration (LC50)) and the normalized expression of a specific gene.
One can determine the growth inhibition (GI50), total growth inhibition (TGI), or lethal concentration (LC50) for a drug for each of the cell lines in the NCI DTP 60 cell line panel. One can use these 3 values to search for correlations against all gene expressions in all cell lines using the NCI's publicly available CELL MINER Software. Alternatively, one can down load for a specific gene its relative expression in each of the 60 cell lines using the NCI's publicly available COMPARE Software, and performs the expression for a specific gene.

[3] = system: 8392B Nontarget Cell Line; assay: two hour toxicity: 2 hr exposure, concentration inhibiting 50% of DNA synthesis activity; format: cell-based; conditions: at 26,000 nM ([…] μM)
Experimental: as §1

[4] = system: c-myc positive daughter line Myc/Rat1A (Myc/ER); assay: role of c-myc in cytotoxicity, c-myc expression induced by 4-hydroxytamoxifen (4HOT); format: cell-based; conditions: FIG. 2
From the text: The expression of c-myc in this cell line is under the control of a modified receptor that responds to 4-hydroxytamoxifen (4HOT).

[5] = system: MV522 cell line (a lung-derived adenocarcinoma cell line); assay: tumor regression (FIG. 1); format: in vivo; conditions: MV522, FIG. 1
[6] = system: XP-A, XP-B, XP-C, XP-D, XP-E, XP-F, CS-A, CS-B, ERCC1, ERCC5; assay: DNA damage profile by DNA repair gene; format: cell-based; conditions: symbols not defined
[7] = system: Mechanism of Multi-drug Resistance; assay: multidrug resistance: resistance by mechanism of multi-drug resistance

CO[C@@]12[C@H](COC(N)=O)C3=C(C(=O)C(C)=C(N)C3=O)N1C[C@@H]1N[C@@H]12 [mitomycin C]
effect of c-myc (MYC) expression on cellular sensitivity [1]: did not alter cellular sensitivity
effect of c-myc (MYC) expression on cellular sensitivity ([1]; listed as Mitomycin C): not sensitive

N.N.[Cl][Pt][Cl] [cisplatin]
effect of c-myc (MYC) expression on cellular sensitivity [1]: did not alter cellular sensitivity

CC1=C(CCC(=O)Oc2ccc3c(c2)CCC2C3CC[C@]3(C)C(O)CCC23)C2=C(C)C3(CC3)[C@@](C)(O)C(=O)C2=C1 (stereo partly shown) [Analog 108]
IC50 (MCF7 (ER positive)): 14100 ± 2800 nM

CC1=C(COCCO)C2=C(C)C3(CC3)[C@@](C)(O)C(=O)C2=C1 [Analog 022]
IC50 (MV522 Target Cell Line): 680 ± 180 nM

CC1=C2C(=CC(C)(C)[C@@H]2O)C(=O)[C@](C)(O)C12CC2 [Illudin M, illudin M, reference compound]
Mean LD50 cytotoxic [2]: 291 nM

CCOCC1=C(C)C=C2C(=O)[C@](C)(O)C3(CC3)C(C)=C21 [Illudofulvene Analog 0016]
GI50 [2]: 102 nM
Mean LD50 cytotoxic [2]: 4,270 nM
Mean TGI cytostatic [2]: 1,070 nM

CC[C@@]1(O)C(=O)OCc2c1cc1n(c2=O)Cc2cc3c(CN(C)C)c(O)ccc3nc2-1 [topotecan]
effect of c-myc (MYC) expression on cellular sensitivity [1]: did not alter cellular sensitivity
effect of c-myc (MYC) expression on cellular sensitivity ([1]; listed as Topotecan): not sensitive

CC(=O)OCC1(C)C=C2C(=O)[C@](C)(O)C3(CC3)C(C)=C2C1O (stereo partly shown) [Illudofulvene Analog 0159]
GI50 [2]: 117 nM
Mean LD50 cytotoxic [2]: 14,790 nM
Mean TGI cytostatic [2]: 2,090 nM

CC1=C(CO)C2=C(C)C3(CC3)[C@@](C)(O)C(=O)C2=C1 [Analog 002]
inhibitory effect on the nontarget 8392B cell line [3]: no inhibitory effect
sensitivity on expression of c-myc in the presence of 4HOT [4]: become sensitive
tumor regression [5]: induce tumor regression
DNA damage profile ([6]; Gene XP-C): 0
DNA damage profile ([6]; Gene XP-E): 0
Cytotoxicity? 2 hr incubation (Myeloid leukemias): Yes
Cytotoxicity? 48 hr incubation (Myeloid leukemias): Yes
Cytotoxicity? 2 hr incubation (Breast carcinomas): Yes
Cytotoxicity? 48 hr incubation (Breast carcinomas): Yes
Cytotoxicity? 2 hr incubation (Epidermoid): Yes
Cytotoxicity? 48 hr incubation (Epidermoid): Yes
Cytotoxicity? 2 hr incubation (Ovarian): Yes
Cytotoxicity? 48 hr incubation (Ovarian): Yes
Cytotoxicity? 2 hr incubation (Lung carcinomas): Yes
Cytotoxicity? 48 hr incubation (Lung carcinomas): Yes
Cytotoxicity? 2 hr incubation (Prostate carcinomas): Yes
Cytotoxicity? 48 hr incubation (Prostate carcinomas): Yes
Cytotoxicity? 2 hr incubation (B cell leukemias): No
Cytotoxicity? 48 hr incubation (B cell leukemias): Yes
Cytotoxicity? 2 hr incubation (T cell leukemias): No
Cytotoxicity? 48 hr incubation (T cell leukemias): Yes
Cytotoxicity? 2 hr incubation (Fibroblasts (normal)): No
Cytotoxicity? 48 hr incubation (Fibroblasts (normal)): Yes
effect of c-myc (MYC) expression on cellular sensitivity [1]: become sensitive
increase in sensitivity conferred by expression of cellular c-myc ([1]; NIH3T3 MYC+ compared to parental c-myc null NIH3T3, based on decrease in cell count, FIG. 3): greater than 10 fold
Resistance to Analog 001/Analog 002 ([7]; Mechanism: BRCA status): No
Resistance to Analog 001/Analog 002 ([7]; Mechanism: Bcl-2 expression): No
Resistance to Analog 001/Analog 002 ([7]; Mechanism: DNA repair): No
Resistance to Analog 001/Analog 002 ([7]; Mechanism: Gp170/MDR1): No
Resistance to Analog 001/Analog 002 ([7]; Mechanism: Gp180/MRP): No
Resistance to Analog 001/Analog 002 ([7]; Mechanism: MGMT expression): No
Resistance to Analog 001/Analog 002 ([7]; Mechanism: MVP/LRP (vault)): No
Resistance to Analog 001/Analog 002 ([7]; Mechanism: Microtubulin alteration): No
Resistance to Analog 001/Analog 002 ([7]; Mechanism: Myc expression): No
Resistance to Analog 001/Analog 002 ([7]; Mechanism: P21 status): No
Resistance to Analog 001/Analog 002 ([7]; Mechanism: P53 status): No
Resistance to Analog 001/Analog 002 ([7]; Mechanism: Thiol content/GST pi): No
Resistance to Analog 001/Analog 002 ([7]; Mechanism: Topoisomerase I): No
Resistance to Analog 001/Analog 002 ([7]; Mechanism: Topoisomerase II): No
dependence of activity on common resistance mechanisms ([7]; multi-medicant resistance phenotype, Bcl-2 over expression, p53 and p21/WAF1 mutations): independent

CC[C@H](C)[C@H](NC(=O)[C@H]1CCCCN1C)C(=O)N(COC(=O)CC(C)C)[C@H](C[C@@H](OC(C)=O)c1nc(C(=O)N[C@@H](Cc2ccc(O)cc2)C[C@H](C)C(=O)O)cs1)C(C)C [Tubulysin A]
Mean LD50 cytotoxic [2]: >10,000 nM

COC(=O)C1=C(C(=O)OC)C23C=C(C)C1C2=C(C)C1(CC1)[C@@](C)(O)C3=O (stereo partly shown) [Illudofulvene Analog 0142]
GI50 [2]: 447 nM
Mean LD50 cytotoxic [2]: 53,700 nM
Mean TGI cytostatic [2]: 4,667 nM
